Source: publication PMC3968014, “Design and Synthesis of a Library of Lead-Like 2,4-Bisheterocyclic Substituted Thiophenes as Selective Dyrk/Clk Inhibitors” (PLoS ONE, 2014)
Like-named read-outs stand apart in the source and are kept apart here.

Experiments:
[1] = Determination of logP, pka and logS (Sirius T3); type: physicochemical; conditions: Experimental
Method: The physicochemical parameters were determined on a Sirius T3 machine (Sirius Analytical machines, East Sussex, UK) by automated titration according to the manufacturer's instructions.

CK2α = biological target: T1, CK2α (Homo sapiens, UniProt P68400); assay: CK2α kinase assay (counter screen); type: biochemical; conditions: read-out: percentage of inhibition CK2α
T1 construct: purchased Life Technologies (Invitrogen SelectScreen); Dyrk1A, Dyrk2 and CK2α in-house or gifts
Method: Dyrk1A, Dyrk1B, Dyrk2, CK2α and Clk1 kinase reactions were performed in a reaction buffer containing 50 mM Tris/HCl, pH 7.4, 0.1 mM EGTA, 0.5 mM DTT, 10 mM MgCl2, 100 µM ATP and 0.33 µM [γ-^32ATP] as well as the appropriate substrate peptides, which were 100 µM Woodtide for the Dyrk isoforms ([…]-NH2), 60 µM CK2 substrate peptide ([…]-NH2, from Millipore) for CK2α or RS repeat peptide ([…]) for Clk1. The CK2α protein was a kind gift of M. Montenarh (Homburg). The kinase reactions were performed at 30°C for 15 min and terminated by spotting 5 µL of the reaction mixture onto a P81 phosphocellulose membrane (Whatman). The membrane was washed four times with 0.3% phosphoric acid and one time with acetone and dried. The dry membrane was exposed in a cassette to a Phosphor Screen Imaging Plate (FujiFilm) and the signals detected by scanning of the imaging plate in a Fuji FLA-3000 PhosphoImager. The spots were quantified using AIDA software (Raytest, Version 3.52) to determine the activities of the kinases in the assay reactions. […] IC50 values were calculated by fitting the data with Origin Pro 8.6 (OriginLabs). The calculated IC50 values are representative of at least two independent determinations.

Dyrk1A = biological target: T2, Dyrk1A (Homo sapiens, UniProt Q13627); assay: Dyrk1A kinase assay (32P-ATP, Woodtide); type: biochemical; conditions: read-out: percentage of inhibition Dyrk1A
T2 construct: encoding the catalytic domain of human Dyrk1A; thrombin cleavage site (N); made in house; host or cells: Escherichia coli BL21(DE3) with pRARE

U2OS osteosarcoma cells = assay: Caspase-3 Assay (Caspase-Glo 3/7); type: cell-based; conditions: starved U2OS cells, 48 hours, vs DMSO control
Method: U2OS osteosarcoma cells were seeded in a 96 well flat bottom plate (15*10^3 cells/well). […] The induction of caspase-3/7 activity was measured using the Promega Caspase-Glo 3/7 assay system (Promega, LOT 0000054568). The resulting luciferase reaction signals that are proportional to the caspase induction were measured in a POLARstar plate reader (BMG Labtech, Offenburg, Germany). […] Values obtained for different compound concentrations were compared using the two-sided Student's t test; levels of significance thus obtained are indicated by asterisks.

[2] = system: V79 hamster lung fibroblast cells; assay: ViaLight Toxicity Assay; type: cell-based; conditions: 48 hours
Method: V79 hamster lung fibroblast cells were plated at a density of 45,000 cells per well in a white 96 well plate and allowed to adhere and grow for 24 hours. The compounds were then applied as dilutions in cell culture medium (DMEM with 10% FCS and penicillin/streptomycin mix) at a final concentration of 5, 10, and 20 µM, respectively. The plate was further incubated for 48 hours at 37°C in a humidified atmosphere containing 5% CO2. The ATP level was detected with a LONZA ViaLight™ Plus Kit according to protocol 1 of the vendor's instructions. Luminescence was measured in a POLARstar plate reader (BMG Labtech, Offenburg, Germany). The background luminescence was obtained from equally treated, cell-free wells containing serum, and subtracted from all values. Inhibition values obtained for different compound concentrations were compared using the two-sided Student's t-test; levels of significance thus obtained are indicated by asterisks.

Dyrk1B = biological target: T3, Dyrk1B (Homo sapiens, UniProt Q9Y463); assay: Dyrk1B kinase assay (32P-ATP, Woodtide); type: biochemical; conditions: at 5 µM; read-out: percentage of inhibition Dyrk1B
T3 construct: purchased Life Technologies PV4649 (LOT # 877059G)

Dyrk2 = biological target: T4, Dyrk2 (Homo sapiens, UniProt Q92630); assay: Dyrk2 kinase assay (32P-ATP, Woodtide); type: biochemical; conditions: for inhibition at 5 µM: read-out: percentage of inhibition Dyrk2
T4 construct: made in house; host or cells: Escherichia coli BL21(DE3) with pRARE; plasmid pGEX-2TK-Dyrk2 (gift from W. Becker, Aachen)
T4 sequence (Q92630 1-601): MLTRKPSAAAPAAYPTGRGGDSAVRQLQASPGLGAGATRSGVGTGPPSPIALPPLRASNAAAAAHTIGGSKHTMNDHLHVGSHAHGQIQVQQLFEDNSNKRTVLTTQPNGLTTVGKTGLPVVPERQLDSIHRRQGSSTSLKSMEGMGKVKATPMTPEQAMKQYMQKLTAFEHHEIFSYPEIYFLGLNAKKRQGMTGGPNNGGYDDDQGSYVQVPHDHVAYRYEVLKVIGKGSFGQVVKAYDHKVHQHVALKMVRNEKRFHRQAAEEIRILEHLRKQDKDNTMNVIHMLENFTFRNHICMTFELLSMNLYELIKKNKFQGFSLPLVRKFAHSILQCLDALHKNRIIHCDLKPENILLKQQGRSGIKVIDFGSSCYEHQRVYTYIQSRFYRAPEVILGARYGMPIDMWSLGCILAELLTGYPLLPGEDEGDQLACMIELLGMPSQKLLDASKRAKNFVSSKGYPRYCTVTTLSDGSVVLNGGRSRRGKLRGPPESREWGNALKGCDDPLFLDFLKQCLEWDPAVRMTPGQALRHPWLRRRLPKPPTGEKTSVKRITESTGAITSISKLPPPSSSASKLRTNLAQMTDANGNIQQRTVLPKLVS

Clk1 = Clk1 (Homo sapiens, UniProt P49759); assay: Clk1 kinase assay (RS repeat peptide); type: biochemical; conditions: read-out: % inhibition Clk1
[3] = Metabolic Stability Assay; conditions: male, Sprague-Dawley, rat, microsomes

T1 sequence (P68400 whole entry): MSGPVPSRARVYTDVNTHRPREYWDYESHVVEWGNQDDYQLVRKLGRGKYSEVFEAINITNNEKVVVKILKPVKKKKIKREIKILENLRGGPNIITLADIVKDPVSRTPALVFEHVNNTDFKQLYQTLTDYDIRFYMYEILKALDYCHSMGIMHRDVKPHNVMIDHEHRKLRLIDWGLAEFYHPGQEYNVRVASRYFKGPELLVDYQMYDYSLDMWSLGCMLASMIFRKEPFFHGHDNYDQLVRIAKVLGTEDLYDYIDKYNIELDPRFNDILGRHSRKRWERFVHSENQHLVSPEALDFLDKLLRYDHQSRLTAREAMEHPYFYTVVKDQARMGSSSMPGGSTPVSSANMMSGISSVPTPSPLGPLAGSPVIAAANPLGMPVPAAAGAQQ
T3 sequence (Q9Y463 whole entry): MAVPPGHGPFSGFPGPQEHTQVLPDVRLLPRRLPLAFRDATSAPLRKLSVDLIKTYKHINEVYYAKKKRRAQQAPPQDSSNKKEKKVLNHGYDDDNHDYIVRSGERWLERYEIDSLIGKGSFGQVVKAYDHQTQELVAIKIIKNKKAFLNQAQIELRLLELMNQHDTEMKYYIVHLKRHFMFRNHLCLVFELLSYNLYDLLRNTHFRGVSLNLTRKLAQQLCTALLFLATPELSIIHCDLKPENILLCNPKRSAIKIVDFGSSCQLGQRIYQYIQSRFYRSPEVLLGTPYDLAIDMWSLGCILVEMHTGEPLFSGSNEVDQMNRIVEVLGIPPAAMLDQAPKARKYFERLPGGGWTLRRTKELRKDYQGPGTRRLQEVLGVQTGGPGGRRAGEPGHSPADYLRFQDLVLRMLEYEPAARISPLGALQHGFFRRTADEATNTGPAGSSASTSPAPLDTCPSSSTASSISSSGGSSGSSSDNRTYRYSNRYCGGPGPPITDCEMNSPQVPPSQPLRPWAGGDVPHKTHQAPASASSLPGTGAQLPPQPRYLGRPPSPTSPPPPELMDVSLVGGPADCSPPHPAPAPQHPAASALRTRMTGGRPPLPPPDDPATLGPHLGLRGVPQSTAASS
Chain of Clk1 (P49759 whole entry): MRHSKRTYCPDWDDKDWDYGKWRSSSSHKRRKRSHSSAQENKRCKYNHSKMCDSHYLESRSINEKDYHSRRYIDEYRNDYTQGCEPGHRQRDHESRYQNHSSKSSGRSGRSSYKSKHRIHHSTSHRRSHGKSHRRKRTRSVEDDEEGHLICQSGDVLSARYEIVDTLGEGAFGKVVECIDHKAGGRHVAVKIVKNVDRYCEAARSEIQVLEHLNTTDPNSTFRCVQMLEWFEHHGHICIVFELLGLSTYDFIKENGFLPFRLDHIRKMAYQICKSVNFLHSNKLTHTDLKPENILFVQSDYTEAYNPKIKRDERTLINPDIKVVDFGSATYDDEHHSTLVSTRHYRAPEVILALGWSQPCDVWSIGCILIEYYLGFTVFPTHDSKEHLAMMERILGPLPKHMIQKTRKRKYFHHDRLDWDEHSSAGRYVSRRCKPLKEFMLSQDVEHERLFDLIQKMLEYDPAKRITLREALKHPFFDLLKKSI

In the case of `c1cncc(-c2csc(-c3cccnc3)c2)c1` [Compound 4], the logP [1] is reported as 2.47, the solubility ([1]; read-out: Solubility) is reported as 500 µg/mL and the solubility ([1]; read-out: logS (converted)) is reported as 2140 µM. The pKa ([1]; read-out: pka1) was 3.48, the pKa ([1]; read-out: pka2) was 4.8 and the inhibition at 5 µM (CK2α) was 18.5%.

For `c1cncc(-c2cc(-c3ccncc3)cs2)c1` [Compound 11], the inhibition at 5 µM (Dyrk1A; at 5 µM) was 10%, the caspase-3/7 activity (U2OS osteosarcoma cells) was “only a slight increase” and the “influence on cell growth (cellular ATP levels)” value ([2]; V79 cells, 5, 10 and 20 µM) was “no influence”. The inhibition at 5 µM (CK2α) was 0%, the inhibition at 5 µM (Dyrk1B) was 10% and the inhibition at 5 µM (Dyrk2; at 5 µM) was 20%.

For `COc1ccc2c(c1)[nH]c1c(C)nccc12` [Harmine, harmine, reference compound], the inhibition at 5 µM (Dyrk1A) was 98%, the “influence on cell viability (cellular ATP levels)” value ([2]; V79 cells, 5 µM) was “slightly toxic” and the inhibition at 5 µM (Dyrk1B) was 98%. For the same compound, the inhibition at 5 µM (Clk1) was 97%, the CLhep predicted at 0.5 µM [3] was 53 mL/min/kg and the half-life at 0.5 µM [3] was 18 min. For the same compound, the IC50 (Dyrk2; IC50 Dyrk2, 100 µM ATP) was 3 µM and the inhibition at 5 µM (Dyrk2) was 68%.
